According to publication doi:10.1101/2020.11.09.375162v1 (biorxiv, 2020):
Read-outs that look alike come from different tables or passages of the source.

Tests used:
[1] = target: T1, human CB2 receptor (hCB2) (Homo sapiens, UniProt P34972); assay: PathHunter beta-arrestin recruitment, CHO-K1; assay type: cell-based
[2] = target: T2, mouse CB2 receptor (mCB2) (Mus musculus, UniProt P47936); assay: cAMP assay, CHO cells; assay type: cell-based; conditions: agonist
[3] = target: T3, human CB1 receptor (hCB1) (Homo sapiens, UniProt P21554); assay: [3H]-CP55940 competition, membranes; assay type: binding
T3 sequence (P21554 whole entry): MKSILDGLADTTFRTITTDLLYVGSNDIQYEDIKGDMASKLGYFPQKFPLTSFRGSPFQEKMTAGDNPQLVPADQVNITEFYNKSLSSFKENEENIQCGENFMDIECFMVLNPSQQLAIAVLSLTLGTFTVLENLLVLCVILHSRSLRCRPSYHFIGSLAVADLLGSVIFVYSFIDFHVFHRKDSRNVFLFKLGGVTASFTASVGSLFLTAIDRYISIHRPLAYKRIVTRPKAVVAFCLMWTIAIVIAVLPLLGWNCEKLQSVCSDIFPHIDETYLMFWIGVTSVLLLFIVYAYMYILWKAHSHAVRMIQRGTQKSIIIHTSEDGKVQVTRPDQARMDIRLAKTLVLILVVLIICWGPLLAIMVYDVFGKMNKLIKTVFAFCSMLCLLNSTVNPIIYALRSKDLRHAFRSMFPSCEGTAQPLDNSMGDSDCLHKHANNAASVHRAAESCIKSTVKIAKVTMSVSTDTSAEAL

[4] = target: T3, human CB1 receptor (hCB1); assay: PathHunter beta-arrestin recruitment, CHO-K1; assay type: cell-based
[5] = target: T1, human CB2 receptor (hCB2); conditions: beta-arrestin1 recruitment
[6] = target: T1, human CB2 receptor (hCB2); conditions: Gi2 activation
[7] = target: T1, human CB2 receptor (hCB2); conditions: Gi1 activation
[8] = target: T1, human CB2 receptor (hCB2); conditions: GoB activation
[9] = target: T1, human CB2 receptor (hCB2); conditions: Gi3 activation
[10] = target: T1, human CB2 receptor (hCB2); conditions: GoA activation
[11] = target: T1, human CB2 receptor (hCB2); conditions: beta-arrestin2 recruitment
[12] = target: T3, human CB1 receptor (hCB1); assay: biochemical
[13] = target: T3, human CB1 receptor (hCB1); assay: cell-based; conditions: read-out: cAMP Emax hCB1
[14] = target: T1, human CB2 receptor (hCB2); assay: cell-based; conditions: read-out: cAMP Emax hCB2
[15] = target: T2, mouse CB2 receptor (mCB2); assay: cell-based; conditions: read-out: cAMP Emax mCB2
[16] = target: T2, mouse CB2 receptor (mCB2); assay: cell-based
[17] = target: T2, mouse CB2 receptor (mCB2); assay: [3H]-CP55940 competition, membranes; assay type: binding
[18] = target: T1, human CB2 receptor (hCB2); assay: [3H]-CP55940 competition, membranes; assay type: binding
[19] = target: T3, human CB1 receptor (hCB1); assay: cAMP assay, CHO cells; assay type: cell-based; conditions: agonist
[20] = target: T3, human CB1 receptor (hCB1); assay: [3H]-CP55940 competition, membranes; assay type: binding; remark: listed apart in the source
[21] = target: T2, mouse CB2 receptor (mCB2); assay: biochemical
[22] = target: T3, human CB1 receptor (hCB1); assay: cell-based
[23] = target: T2, mouse CB2 receptor (mCB2); assay: cAMP assay, CHO cells; assay type: cell-based

T2 sequence (P47936 whole entry): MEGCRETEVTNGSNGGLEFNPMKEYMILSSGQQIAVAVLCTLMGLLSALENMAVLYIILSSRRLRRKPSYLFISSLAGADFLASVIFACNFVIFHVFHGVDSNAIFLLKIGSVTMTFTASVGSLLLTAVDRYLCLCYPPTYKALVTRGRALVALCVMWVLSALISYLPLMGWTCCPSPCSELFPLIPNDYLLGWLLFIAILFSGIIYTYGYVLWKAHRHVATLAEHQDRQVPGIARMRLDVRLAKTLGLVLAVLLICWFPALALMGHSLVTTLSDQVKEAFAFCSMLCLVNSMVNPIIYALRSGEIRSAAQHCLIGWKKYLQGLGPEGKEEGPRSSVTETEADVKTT
T1 sequence (P34972 whole entry): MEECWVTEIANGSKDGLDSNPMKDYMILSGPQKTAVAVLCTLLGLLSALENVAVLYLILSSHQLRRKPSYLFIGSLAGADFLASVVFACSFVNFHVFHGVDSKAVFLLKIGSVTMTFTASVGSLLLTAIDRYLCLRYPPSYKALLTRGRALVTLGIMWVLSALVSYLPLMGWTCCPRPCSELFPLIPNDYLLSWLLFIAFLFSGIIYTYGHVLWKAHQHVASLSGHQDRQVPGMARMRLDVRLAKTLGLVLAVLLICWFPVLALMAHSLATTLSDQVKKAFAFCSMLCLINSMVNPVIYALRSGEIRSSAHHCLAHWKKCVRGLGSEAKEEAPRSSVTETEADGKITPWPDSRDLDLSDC

**Q.** With `CN1CCCCC1Cn1cc(C(=O)c2cc([N+](=O)[O-])ccc2I)c2ccccc21` (racemic) [(rac)-AM1241] as the compound, how does the EC50 [1] read?
**A.** The EC50 was over 10 µM.

**Q.** For `CCCCCCC(C)(C)c1ccc([C@@H]2C[C@H](O)CC[C@H]2CCCO)c(O)c1` [CP55940], which “cAMP pEC50” value [2] is on record?
**A.** Its value is 10.17.

**Q.** Which Ki [3] does the source give for `CCCCCCC(C)(C)c1cc(OC)c([C@@H]2C=C(CO)[C@@H]3C[C@H]2C3(C)C)c(OC)c1` [HU308] here?
**A.** Its Ki is over 10 µM.

**Q.** And the EC50 [4]?
**A.** The EC50 was over 10 µM.

**Q.** With `CCN1CCN(c2nc(C3CC3)nc3c2nnn3Cc2ccccc2Cl)CC1` [RO6435559] as the compound, how does the “β-arrestin1 pEC50” value [5] read?
**A.** The value was 8.518 M.

**Q.** And the “Gi2 pEC50” value [6]?
**A.** Its value is 8.154 M.

**Q.** What about the “Gi1 pEC50” value [7] of the same compound?
**A.** Its value is 7.984 M.

**Q.** And the “GoB pEC50” value [8]?
**A.** The value was 7.794 M.

**Q.** And the “Gi3 pEC50” value [9]?
**A.** The value was 7.941 M.

**Q.** What about the “GoA pEC50” value [10] of the same compound?
**A.** Its value is 7.998 M.

**Q.** And the “β-arrestin2 pEC50” value [11]?
**A.** Its value is 8.131 M.

**Q.** With `CCOC(=O)C(CC)(CC)NC(=O)c1ccc(N2CCCC2)c(OCC2CC2)n1` [RO6843766] as the compound, how does the Ki [12] read?
**A.** The Ki was 0.617 µM.

**Q.** And the Emax [13]?
**A.** The Emax was 59%.

**Q.** And the Emax [14]?
**A.** Its Emax is 91%.

**Q.** What about the Emax [15] of the same compound?
**A.** Its Emax is 61%.

**Q.** What does the source list for `CN1CCN(c2nc(C(C)(C)C)nc3c2nnn3Cc2ccccc2Cl)CC1` [RO6844395]?
**A.** pKi hCB1 ([12]; binder): 5.76 M; Emax [13]: 57%; Gi2 pEC50 [6]: 7.499 M; Emax [14]: 99%; Gi1 pEC50 [7]: 7.855 M; cAMP pEC50 mCB2 ([16]; cAMP, agonist): 7.30 M; Emax [15]: 80%; pKi [17]: 6.87; pKi [18]: 7.67; Gi3 pEC50 [9]: 7.994 M; GoA pEC50 [10]: 7.607 M

**Q.** How did the Emax [13] turn out when `CCOC(=O)[C@H](CC(C)C)NC(=O)c1ccc(C2CC2)c(Cc2ccc(F)cc2)n1` [RO6853973] was run?
**A.** Its Emax is 83%.

**Q.** What about the Emax [14] of the same compound?
**A.** Its Emax is 45%.

**Q.** And the “cAMP pEC50” value [19]?
**A.** The value was 8.12.

**Q.** And the EC50 [16]?
**A.** The EC50 was over 10 µM.

**Q.** And the pKi [20]?
**A.** Its pKi is 8.21.

**Q.** And the Emax [15]?
**A.** The Emax was 23%.

**Q.** What about the Ki [21] of the same compound?
**A.** The Ki was 0.000676 µM.

**Q.** And the pKi [18]?
**A.** Its pKi is 9.45.

**Q.** Which results are given for `O=S(=O)(Cc1ccccc1)c1nc(N2CCC(F)(F)C2)c2nnn(Cc3ccccc3Cl)c2n1` [RO6871487]?
**A.** Ki [12]: 4.57 µM; Emax [13]: 9%; Emax [14]: 52%; EC50 [16]: > 10 µM; Emax [15]: 24%; Ki [21]: 0.00692 µM; EC50 [22]: > 10 µM

**Q.** What does the source list for `OCCSc1nc(N2CCC(F)(F)C2)c2nnn(Cc3ccccc3Cl)c2n1` [RO6878558]?
**A.** Ki [12]: > 10 µM; Emax [13]: 20%; Emax [14]: 87%; Emax [15]: 92%; EC50 [22]: > 10 µM; pKi [18]: 6.94

**Q.** What does the source list for `CC(C)(C)c1noc(-c2ccc(C3CC3)c(Cc3ccc(F)cc3)n2)n1` [RO6892033, 6-(3-tert-Butyl-1,2,4-oxadiazol-5-yl)-3-cyclopropyl-2-[(4-fluorophenyl)methyl]pyridine]?
**A.** Emax [13]: 70%; Emax [14]: 66%; Emax [15]: 45%; Ki [21]: 0.00759 µM; EC50 [23]: 0.00407 µM

**Q.** How did the “cAMP pEC50” value [23] turn out when `CC(C)(C)c1nc(-c2cc(OCc3ccc(F)cc3)c(C3CC3)c(Cl)n2)no1` [RO6926274] was run?
**A.** The value was under 5.
